Reference: the NIST ThermoML archive (doi:10.1016/j.jct.2005.05.003)
Numbers after ± are expanded uncertainties.

Details: Liquid, Vibrating tube method

For CO [methanol], the mass density (298.26 K, 235 kPa) was 785.98 ± 0.49 kg/m3, the mass density (298.26 K, 5000 kPa) was 790.69 ± 0.5 kg/m3 and the mass density (298.26 K, 9999 kPa) was 795.4 ± 0.51 kg/m3. The mass density (298.26 K, 15013 kPa) was 799.88 ± 0.53 kg/m3, the mass density (298.26 K, 19987 kPa) was 804.1 ± 0.54 kg/m3 and the mass density (298.26 K, 25008 kPa) was 808.17 ± 0.56 kg/m3. It also gave a mass density (298.26 K, 29997 kPa) of 812.04 ± 0.57 kg/m3, a mass density (298.26 K, 34991 kPa) of 815.76 ± 0.59 kg/m3 and a mass density (298.26 K, 39981 kPa) of 819.34 ± 0.61 kg/m3. For the same compound, the mass density (323.22 K, 270 kPa) was 762.14 ± 0.48 kg/m3, the mass density (323.22 K, 4990 kPa) was 767.53 ± 0.49 kg/m3 and the mass density (323.22 K, 9984 kPa) was 772.87 ± 0.5 kg/m3. For the same compound, the mass density (323.22 K, 14982 kPa) was 777.91 ± 0.52 kg/m3, the mass density (323.22 K, 19989 kPa) was 782.69 ± 0.54 kg/m3 and the mass density (323.22 K, 24986 kPa) was 787.21 ± 0.56 kg/m3. The mass density (323.22 K, 29995 kPa) was 791.53 ± 0.58 kg/m3, the mass density (323.22 K, 34987 kPa) was 795.64 ± 0.6 kg/m3 and the mass density (323.22 K, 39993 kPa) was 799.6 ± 0.62 kg/m3. For the same compound, the mass density (348.25 K, 366 kPa) was 737.29 ± 0.46 kg/m3, the mass density (348.25 K, 4987 kPa) was 743.46 ± 0.48 kg/m3 and the mass density (348.25 K, 9986 kPa) was 749.65 ± 0.5 kg/m3. The mass density (348.25 K, 14991 kPa) was 755.42 ± 0.52 kg/m3, the mass density (348.25 K, 20004 kPa) was 760.84 ± 0.54 kg/m3 and the mass density (348.25 K, 25020 kPa) was 765.94 ± 0.56 kg/m3. The mass density (348.25 K, 30013 kPa) was 770.76 ± 0.59 kg/m3, the mass density (348.25 K, 34989 kPa) was 775.32 ± 0.61 kg/m3 and the mass density (348.25 K, 40000 kPa) was 779.7 ± 0.64 kg/m3. For the same compound, the mass density (373.26 K, 534 kPa) was 710.55 ± 0.45 kg/m3, the mass density (373.26 K, 4983 kPa) was 717.67 ± 0.47 kg/m3 and the mass density (373.26 K, 9990 kPa) was 724.99 ± 0.49 kg/m3. The mass density (373.26 K, 14998 kPa) was 731.69 ± 0.52 kg/m3, the mass density (373.26 K, 19985 kPa) was 737.88 ± 0.54 kg/m3 and the mass density (373.26 K, 24994 kPa) was 743.68 ± 0.57 kg/m3. For the same compound, the mass density (373.26 K, 29997 kPa) was 749.13 ± 0.6 kg/m3, the mass density (373.26 K, 35001 kPa) was 754.27 ± 0.63 kg/m3 and the mass density (373.26 K, 39996 kPa) was 759.14 ± 0.65 kg/m3. The mass density (398.28 K, 934 kPa) was 680.93 ± 0.44 kg/m3, the mass density (398.28 K, 4984 kPa) was 689 ± 0.46 kg/m3 and the mass density (398.28 K, 9998 kPa) was 697.91 ± 0.49 kg/m3. For the same compound, the mass density (398.28 K, 14986 kPa) was 705.88 ± 0.52 kg/m3, the mass density (398.28 K, 19987 kPa) was 713.16 ± 0.55 kg/m3 and the mass density (398.28 K, 24992 kPa) was 719.87 ± 0.58 kg/m3. It also gave a mass density (398.28 K, 29991 kPa) of 726.11 ± 0.61 kg/m3, a mass density (398.28 K, 35005 kPa) of 731.99 ± 0.64 kg/m3 and a mass density (398.28 K, 40004 kPa) of 737.47 ± 0.68 kg/m3.
